Experimental data: the NIST ThermoML archive (doi:10.1021/je060339m)
Numbers after ± are expanded uncertainties.

Settings: Liquid

CCCOC(C)=O [propyl ethanoate]
mass density [kg/m3]
Settings	298.15 K	303.15 K	308.15 K	313.15 K	318.15 K	323.15 K	328.15 K	333.15 K	338.15 K	343.15 K
100 kPa	882 ± 3.3	876.2 ± 3.3	870.5 ± 3.3	864.9 ± 3.3	859.3 ± 3.3	853.6 ± 3.3	848 ± 3.3	842.5 ± 3.3	836.7 ± 3.3	831.2 ± 3.3
1000 kPa	882.5 ± 3.4	876.8 ± 3.4	871.2 ± 3.4	865.5 ± 3.4	859.8 ± 3.4	854.8 ± 3.4	848.7 ± 3.4	843.6 ± 3.4	838 ± 3.4	832.3 ± 3.4
2000 kPa	883.4 ± 3.6	877.7 ± 3.6	872.2 ± 3.6	866.6 ± 3.6	860.9 ± 3.6	855.8 ± 3.5	849.9 ± 3.5	844.8 ± 3.5	839.2 ± 3.5	–
3000 kPa	884.3 ± 3.7	878.8 ± 3.7	873.2 ± 3.7	867.6 ± 3.7	862.1 ± 3.7	856.9 ± 3.7	851 ± 3.7	845.9 ± 3.7	840.5 ± 3.7	–
3300 kPa	884.6 ± 3.7	879 ± 3.7	873.4 ± 3.7	867.9 ± 3.7	862.4 ± 3.7	857.1 ± 3.7	851.3 ± 3.7	846.2 ± 3.7	840.8 ± 3.7	–
5000 kPa	886.4 ± 3.9	880.8 ± 3.9	875.3 ± 3.9	869.9 ± 3.9	864.4 ± 3.9	859 ± 3.9	853.7 ± 3.9	848.3 ± 3.9	842.8 ± 3.9	–
10000 kPa	890.7 ± 4.5	885.3 ± 4.5	879.9 ± 4.5	874.7 ± 4.5	869.4 ± 4.5	864.1 ± 4.5	859 ± 4.5	853.9 ± 4.5	848.6 ± 4.5	–
15000 kPa	894.8 ± 5.1	889.5 ± 5.1	884.3 ± 5.1	879.2 ± 5.1	874.1 ± 5.1	869 ± 5.1	864 ± 5.1	859 ± 5.1	853.9 ± 5.1	–
20000 kPa	898.7 ± 5.7	893.5 ± 5.7	888.4 ± 5.7	883.5 ± 5.7	878.5 ± 5.7	873.5 ± 5.7	868.7 ± 5.7	863.9 ± 5.7	859 ± 5.7	–
25000 kPa	902.5 ± 6.3	897.4 ± 6.3	892.4 ± 6.3	887.6 ± 6.3	882.8 ± 6.3	877.9 ± 6.3	873.3 ± 6.3	868.6 ± 6.3	863.8 ± 6.3	–
30000 kPa	906.9 ± 6.9	902 ± 6.9	897.2 ± 6.9	892.6 ± 6.9	887.9 ± 6.9	883.2 ± 6.9	878.8 ± 6.9	874.3 ± 6.9	869.6 ± 6.9	–
35000 kPa	911.7 ± 7.5	906.9 ± 7.5	902.3 ± 7.5	897.7 ± 7.5	893.2 ± 7.5	888.8 ± 7.5	884.4 ± 7.5	880.1 ± 7.5	875.5 ± 7.5	–
